The target of this assay is T1, BRD4(BD1) (Homo sapiens, UniProt O60885).
T1 construct: purchased BPS Bioscience
As to the kind of experiment: In Vitro Bromodomain Inhibition Assay (AlphaLISA, H4-tetraacetyl peptide). In kind it is binding. The following applies: His-tagged BRD4(BD1) 200 nM, biotinylated H4-tetraacetyl peptide 200 nM, room temperature. On the procedure:
To measure activity of bromodomain inhibitors, a His-epitope tagged BRD4 BD149-170 was purchased from BPS Bioscience. BRD4 binding and inhibition was assessed by monitoring the engagement of biotinylated H4-tetraacetyl peptide (H4K5/8/12/16; AnaSpec #64989-025) with the target using the AlphaLISA technology (Perkin-Elmer). Specifically, in a 384 well OptiPlate, BRD4(BD1) (200 nM final) was pre-incubated with either DMSO (final 1.0% DMSO) or a compound dilution series in DMSO. All reagents were diluted in assay buffer containing 50 mM HEPES (pH 7.4), 100 mM NaCl, 0.1% (w/v) BSA, and 0.05% (w/v) CHAPS. After a 30 minute incubation at room temperature, H4 peptide was added (200 nM final) and the reaction was incubated an additional 30 minutes at room temperature. Alpha. streptavidin donor beads and AlphaLISA nickel chelate acceptor beads were then added to a final concentration of 10 ug/mL each. After one hour, equilibration plates were read on an Envision instrument and IC50s calculated using a four parameter non-linear curve fit.

pIC50: −log10 of the molar value.

Turning to `COc1cc2c(cc1-c1c(C)noc1C)ncc1oc(=O)n([C@H](C)c3ccccc3)c12` [Example 12A, 7-(3,5-Dimethylisoxazol-4-yl)-8-methoxy-1-[(1R)-1-phenylethyl]oxazolo[5,4-c]quinolin-2-one], the pIC50 (usually the IC50 on a negative log10 scale, so that one unit is a factor of ten) was more than 6.00.

`COc1cc2c(cc1-c1c(C)noc1C)nc(CN(C)C)c1oc(=O)n([C@H](C)c3ccccc3)c12` [Example 42, 4-(Dimethylaminomethyl)-7-(3,5-dimethylisoxazol-4-yl)-8-methoxy-1-[(1R)-1-phenylethyl]oxazolo[5,4-c]quinolin-2-one] gave a pIC50 of more than 6.00. As for `CCOC(=O)c1nc2cc(-c3c(C)noc3C)c(OC)cc2c2c1oc(=O)n2[C@H](C)c1ccccc1` [Example 34, Ethyl 7-(3,5-Dimethylisoxazol-4-yl)-8-methoxy-2-oxo-1-[(1R)-1-phenylethyl]oxazolo[5,4-c]quinoline-4-carboxylate], the figure is more than 6.00. On to `COc1cc2c(cc1-c1c(C)noc1C)ncc1oc(=O)n([C@H](C)c3cccc(C#N)c3)c12` [Example 44, 3-[(1R)-1-[7-(3,5-Dimethylisoxazol-4-yl)-8-methoxy-2-oxo-oxazolo[5,4-c]quinolin-1-yl]ethyl]benzonitrile], for which the pIC50 was more than 6.00. In turn, `COc1cc2c(cc1-c1c(C)noc1C)nc(CN(C)C)c1oc(=O)n(Cc3ccccc3)c12` [Example 47, 1-Benzyl-4-(dimethylaminomethyl)-7-(3,5-dimethylisoxazol-4-yl)-8-methoxy-oxazolo[5,4-c]quinolin-2-one] gave a pIC50 of more than 6.00. With `COc1cc2c(cc1-c1c(C)noc1C)nc(C)c1oc(=O)n([C@H](C)c3ccccc3)c12` [Example 36, 7-(3,5-Dimethylisoxazol-4-yl)-8-methoxy-4-methyl-1-[(1R)-1-phenylethyl]oxazolo[5,4-c]quinolin-2-one], the pIC50 is more than 6.00. As for `COc1cc2c(cc1-c1c(C)noc1C)ncc1oc(=O)n(Cc3ccccc3S(C)(=O)=O)c12` [Example 49, 7-(3,5-Dimethylisoxazol-4-yl)-8-methoxy-1-[(2-methylsulfonylphenyl)methyl]oxazolo[5,4-c]quinolin-2-one], the figure is more than 6.00; as for `COc1cc2c(cc1-c1c(C)noc1C)ncc1oc(=O)n(Cc3ccccc3Cl)c12` [Example 18, 1-[(2-Chlorophenyl)methyl]-7-(3,5-dimethylisoxazol-4-yl)-8-methoxy-oxazolo[5,4-c]quinolin-2-one], more than 6.00.

For the compound `CC[C@H](c1ccccc1)n1c(=O)oc2cnc3cc(-c4c(C)noc4C)c(OC)cc3c21` [Example 39, 7-(3,5-Dimethylisoxazol-4-yl)-8-methoxy-1-[(1R)-1-phenylpropyl]oxazolo[5,4-c]quinolin-2-one], the pIC50 was more than 6.00.

With `COc1cc2c(cc1-c1c(C)noc1C)nc(CO)c1oc(=O)n(Cc3ccccc3)c12` [Example 33, 1-Benzyl-7-(3,5-dimethylisoxazol-4-yl)-4-(hydroxymethyl)-8-methoxy-oxazolo[5,4-c]quinolin-2-one], the pIC50 was more than 6.00. As for `COc1cc2c(cc1-c1c(C)noc1C)ncc1oc(=O)n([C@H](C)c3ccc(C#N)cc3)c12` [Example 43, 4-[(1R)-1-[7-(3,5-Dimethylisoxazol-4-yl)-8-methoxy-2-oxo-oxazolo[5,4-c]quinolin-1-yl]ethyl]benzonitrile], the figure is more than 6.00; as for `COc1cc2c(cc1-c1c(C)noc1C)ncc1oc(=O)n([C@H](C)c3ccc(Cl)cc3)c12` [Example 40, 1-[(1R)-1-(4-Chlorophenyl)ethyl]-7-(3,5-dimethylisoxazol-4-yl)-8-methoxy-oxazolo[5,4-c]quinolin-2-one], more than 6.00; as for `COc1cc2c(cc1-c1c(C)noc1C)nc(CO)c1oc(=O)n([C@H](C)c3ccccc3)c12` [Example 35, 7-(3,5-Dimethylisoxazol-4-yl)-4-(hydroxymethyl)-8-methoxy-1-[(1R)-1-phenylethyl]oxazolo[5,4-c]quinolin-2-one], more than 6.00. As for `COc1cc2c(cc1-c1c(C)noc1C)ncc1oc(=O)n(Cc3ccc(C)cc3)c12` [Example 46, 7-(3,5-Dimethylisoxazol-4-yl)-8-methoxy-1-(p-tolylmethyl)oxazolo[5,4-c]quinolin-2-one], the figure is more than 6.00. As for `COc1cc2c(cc1-c1c(C)noc1C)nc(CN1CCOCC1)c1oc(=O)n(Cc3ccccc3)c12` [Example 41, 1-Benzyl-7-(3,5-dimethylisoxazol-4-yl)-8-methoxy-4-(morpholinomethyl)oxazolo[5,4-c]quinolin-2-one], the figure is more than 6.00; as for `CCNCc1nc2cc(-c3c(C)noc3C)c(OC)cc2c2c1oc(=O)n2Cc1ccccc1` [Example 52, 1-Benzyl-7-(3,5-dimethylisoxazol-4-yl)-4-(ethylaminomethyl)-8-methoxy-oxazolo[5,4-c]quinolin-2-one], more than 6.00; as for `COc1cc2c(cc1-c1c(C)noc1C)ncc1oc(=O)n(Cc3ccccc3)c12` [Example 2, 1-Benzyl-7-(3,5-dimethylisoxazol-4-yl)-8-methoxy-oxazolo[5,4-c]quinolin-2-one], more than 6.00.

Regarding `CCN(Cc1nc2cc(-c3c(C)noc3C)c(OC)cc2c2c1oc(=O)n2Cc1ccccc1)C(C)=O` [Example 48, N-[[1-Benzyl-7-(3,5-dimethylisoxazol-4-yl)-8-methoxy-2-oxo-oxazolo[5,4-c]quinolin-4-yl]methyl]-N-ethyl-acetamide], the pIC50 was more than 6.00. As for `COc1cc2c(cc1-c1c(C)noc1C)ncc1oc(=O)n(Cc3ccc(OC(F)(F)F)cc3)c12` [Example 54, 7-(3,5-Dimethylisoxazol-4-yl)-8-methoxy-1-[[4-(trifluoromethoxy)phenyl]methyl]oxazolo[5,4-c]quinolin-2-one], the figure is more than 6.00; as for `COCc1nc2cc(-c3c(C)noc3C)c(OC)cc2c2c1oc(=O)n2[C@H](C)c1ccccc1` [Example 38, 7-(3,5-Dimethylisoxazol-4-yl)-8-methoxy-4-(methoxymethyl)-1-[(1R)-1-phenylethyl]oxazolo[5,4-c]quinolin-2-one], more than 6.00; as for `COc1cc2c(cc1-c1c(C)noc1C)ncc1oc(=O)n([C@H](C)c3cccc(Cl)c3)c12` [Example 45, 1-[(1R)-1-(3-Chlorophenyl)ethyl]-7-(3,5-dimethylisoxazol-4-yl)-8-methoxy-oxazolo[5,4-c]quinolin-2-one], more than 6.00.

The compound `COc1cc2c(cc1-c1c(C)noc1C)nc(C(=O)O)c1oc(=O)n([C@H](C)c3ccccc3)c12` [Example 51, 7-(3,5-Dimethylisoxazol-4-yl)-8-methoxy-2-oxo-1-[(1R)-1-phenylethyl]oxazolo[5,4-c]quinoline-4-carboxylic acid] had a pIC50 of more than 6.00.

Consider `COc1cc2c(cc1-c1c(C)noc1C)ncc1oc(=O)n(Cc3c(C)cccc3F)c12` [Example 37, 7-(3,5-Dimethylisoxazol-4-yl)-1-[(2-fluoro-6-methyl-phenyl)methyl]-8-methoxy-oxazolo[5,4-c]quinolin-2-one], for which the negative-log IC50 (pIC50) is more than 6.00. As for `COc1cc2c(cc1-c1c(C)noc1C)ncc1oc(=O)n([C@H](C)c3ccccn3)c12` [Example 3, 7-(3,5-Dimethylisoxazol-4-yl)-8-methoxy-1-[(1R)-1-(2-pyridyl)ethyl]oxazolo[5,4-c]quinolin-2-one], the figure is more than 6.00. `COc1cc2c(cc1-c1c(C)noc1C)ncc1oc(=O)n(Cc3ccccc3C#N)c12` [Example 50, 2-[[7-(3,5-Dimethylisoxazol-4-yl)-8-methoxy-2-oxo-oxazolo[5,4-c]quinolin-1-yl]methyl]benzonitrile] gave a pIC50 of more than 6.00. As for `CCOC(=O)c1nc2cc(-c3c(C)noc3C)c(OC)cc2c2c1oc(=O)n2Cc1ccccc1` [Example 1, Ethyl 1-benzyl-7-(3,5-dimethylisoxazol-4-yl)-8-methoxy-2-oxo-oxazolo[5,4-c]quinoline-4-carboxylate], the figure is more than 6.00.

The record behind these values is patent US20160039842A1, “OXAZOLO[5,4-C]QUINOLIN-2-ONE COMPOUNDS AS BROMODOMAIN INHIBITORS” (EPIGENETIX, INC., priority 2013, published 2016).
